Source: patent publication US5962502A, “Polyamidic acid derivatives with antigastrin activity, a method for their preparation, and their pharmaceutical use” (priority 1993, dated 1999)

Assays:
mouse = test: Black and White Box test in the mouse (anxiolytic activity); format: in vivo; conditions: for LIGHT TIME TOTAL TIME / LIGHT-DARK MOVEMENTS / MOV. DARK % TOTAL MOV. / TOTAL MOVEMENTS: 5 minutes; for anxiolytic activity, result in words: Black and White Box test, IP; for increase in the number of light-dark movements in comparison with the controls: summary over doses
Protocol: It has recently been postulated that the central CCK-B receptor has an important role in anxiety. This is in accordance with studies also carried out in man, which have shown that the central CCK-B mechanisms have an important function in the mediation of panic attacks [Bradwejn, H. et al; J. Psychopharmacology 6 (1992), 345]. […] This experimental model, which was carried out according to Costall et al [Pharm. Biochem. Behav. 32 (1989), 777-785], used a box with dimensions of 45×21×21(h) cm divided into 2 compartments which communicated with one another through a 13×5 cm hole. The smaller compartment (1/3 of the total area) had black walls, whereas the larger had transparent walls and was illuminated by a lamp which was placed 20 cm above the box and supplied light at 20W. Under the floor there was an activity meter which recorded the movements performed by the animal in the individual compartments. The experiment was started by placing the animal in the centre of the illuminated box; as well as movements, the time which the animal spent in the dark and in the light areas and the number of movements between the 2 compartments were then recorded for 5 minutes. A control animal generally preferred to stay in the dark compartment where it felt better protected from an unusual environmental situation which put it in a state of anxiety. In this experimental model, a compound having anxiolytic activity decreased the % of movements into the dark in comparison with the total movements, increased the movements between the two light-dark compartments, and increased the % of time spent in the light in comparison with the total time.
The results obtained are shown in Table 7, where the activities obtained with compounds 9, 21 and 51 are given, tested in comparison with diazepam.

central CCK-B receptor = target: T1, central CCK-B receptor (Cavia porcellus, UniProt H0VZC5); test: Inhibition of the binding of [3-H][N-methyl-N-leucine]CCK-8 to guinea-pig cortical membranes; conditions: for times more active than the corresponding diastereoisomer at the carbon atom (**): binding, guinea-pig cortex; for IC50: 150 minutes at 25° C.
T1 construct: Cerebral cortices of male white guinea-pigs were thus used; from tissue; host or cells: cerebral cortex membranes of male white guinea-pigs
T1 sequence (H0VZC5 1-426): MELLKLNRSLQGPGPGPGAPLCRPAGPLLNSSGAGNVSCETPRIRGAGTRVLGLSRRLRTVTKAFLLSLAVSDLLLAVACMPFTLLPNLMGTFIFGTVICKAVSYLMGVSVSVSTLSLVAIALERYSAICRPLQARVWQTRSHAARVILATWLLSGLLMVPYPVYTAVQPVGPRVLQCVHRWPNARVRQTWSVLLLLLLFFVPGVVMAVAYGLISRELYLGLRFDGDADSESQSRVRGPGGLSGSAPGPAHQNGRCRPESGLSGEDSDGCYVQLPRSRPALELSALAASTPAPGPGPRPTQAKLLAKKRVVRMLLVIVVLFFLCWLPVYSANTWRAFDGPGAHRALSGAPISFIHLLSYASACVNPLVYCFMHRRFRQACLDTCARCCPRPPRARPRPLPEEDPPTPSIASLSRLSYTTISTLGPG
In short: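 Male guinea-pig cerebral cortex membranes (about 300 mcg protein/ml) incubated with non-sulphated [3-H]-labelled CCK-8 tracer and compound 150 minutes at 25° C. Pellet radioactivity counted by liquid scintillation; nonspecific binding defined with 5.10^-6 M CCK-8.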

CCK-A = target: T2, CCK-A (Cavia porcellus, UniProt Q63931); test: Anti-CCK-A activity on guinea-pig gall bladder stimulated in vitro by CCK-8; conditions: for Ratio I/II (CCK-A IC50 / CCK-B IC50): gall bladder IC50 over gastric mucous cells IC50; for IC50: guinea-pig gall bladder in vitro, CCK-8 10 ng/ml, read-out: CCK-A-antagonistic activity IC50 (I)
T2 construct: A longitudinal strip of guinea-pig gall-bladder was put in a bath for isolated organs; from tissue; host or cells: guinea-pig gall bladder longitudinal strip
T2 sequence (Q63931 1-430): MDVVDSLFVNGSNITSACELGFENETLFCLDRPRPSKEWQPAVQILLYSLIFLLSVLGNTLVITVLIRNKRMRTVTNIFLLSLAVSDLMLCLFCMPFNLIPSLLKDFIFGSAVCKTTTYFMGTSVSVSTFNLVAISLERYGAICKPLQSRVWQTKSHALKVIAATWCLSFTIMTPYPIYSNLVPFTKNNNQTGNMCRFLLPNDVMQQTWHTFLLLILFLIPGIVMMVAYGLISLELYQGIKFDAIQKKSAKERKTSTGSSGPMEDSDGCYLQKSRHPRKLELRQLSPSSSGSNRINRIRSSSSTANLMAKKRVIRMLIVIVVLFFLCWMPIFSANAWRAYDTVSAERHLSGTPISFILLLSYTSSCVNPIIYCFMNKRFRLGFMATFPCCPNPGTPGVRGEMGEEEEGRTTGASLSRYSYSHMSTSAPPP
Protocol: The experimental model used was guinea-pig gall bladder stimulated in vitro by CCK-8, with the use of lorglumide as the reference standard. A longitudinal strip of guinea-pig gall-bladder was put in a bath for isolated organs in the presence of Krebs buffer at a temperature of 32° C., with continuous oxygenation with an oxygen-CO2 mixture (95-[…]). The isometric contractions were detected by means of a force transducer and recorded.

## O=C(CC[C@@H](NC(=O)c1cc(Cl)cc(Cl)c1)C(=O)N1CCC2(CCCC2)CC1)N[C@H](Cc1ccccc1)C(=O)O [Compound 9, (R,R)-1[(1-carboxy-2-phenylethyl)amino]-1 oxo-5-(8-azaspiro[4.5]decan-8-yl)-4-(3,5-dichloro-benzoylamino)-5-oxopentanoic acid]
mouse; 0.1 mg/kg IP
  EFF. % VS CONTROL (LIGHT TIME TOTAL TIME): 17%
  EFF. % VS CONTROL (LIGHT-DARK MOVEMENTS): 6%
  EFF. % VS CONTROL (MOV. DARK % TOTAL MOV.): 0%
  LIGHT TIME TOTAL TIME: 31.0%
  LIGHT-DARK MOVEMENTS: 16.1
  MOV. DARK % TOTAL MOV.: 59%
  TOTAL MOVEMENTS: 505
mouse; 1.0 mg/kg IP
  EFF. % VS CONTROL (LIGHT TIME TOTAL TIME): 36%
  EFF. % VS CONTROL (LIGHT-DARK MOVEMENTS): 31%
  EFF. % VS CONTROL (MOV. DARK % TOTAL MOV.): -7%
  LIGHT TIME TOTAL TIME: 36.1%
  LIGHT-DARK MOVEMENTS: 19.9
  MOV. DARK % TOTAL MOV.: 55%
  TOTAL MOVEMENTS: 493
mouse; 10.0 mg/kg IP
  EFF. % VS CONTROL (LIGHT TIME TOTAL TIME): 26%
  EFF. % VS CONTROL (LIGHT-DARK MOVEMENTS): 16%
  EFF. % VS CONTROL (MOV. DARK % TOTAL MOV.): -7%
  LIGHT TIME TOTAL TIME: 33.5%
  LIGHT-DARK MOVEMENTS: 17.7
  MOV. DARK % TOTAL MOV.: 55%
  TOTAL MOVEMENTS: 503
mouse
  anxiolytic activity, result in words: anxiolytic activity without sedative activity
  increase in the number of light-dark movements in comparison with the controls: 20-30%
Central CCK-B receptor
  times more active than the corresponding diastereoisomer at the carbon atom (**): about 5 times
Central CCK-B receptor; guinea-pig cortical membranes
  IC50: 0.15 µM
CCK-A
  Ratio I/II (CCK-A IC50 / CCK-B IC50): 108
  IC50: 5.4 µM

## O=C(CC[C@@H](NC(=O)c1cc(Cl)cc(Cl)c1)C(=O)N1CCC2(CCCC2)CC1)N[C@H](Cc1c[nH]c2ccccc12)C(=O)O [Compound 21]
mouse; 0.03 mg/kg IP
  EFF. % VS CONTROL (LIGHT TIME TOTAL TIME): 11%
  EFF. % VS CONTROL (LIGHT-DARK MOVEMENTS): 26%
  EFF. % VS CONTROL (MOV. DARK % TOTAL MOV.): -6%
  LIGHT TIME TOTAL TIME: 28.9%
  LIGHT-DARK MOVEMENTS: 18.2
  MOV. DARK % TOTAL MOV.: 62%
  TOTAL MOVEMENTS: 522
mouse; 0.3 mg/kg IP
  EFF. % VS CONTROL (LIGHT TIME TOTAL TIME): 30%
  EFF. % VS CONTROL (LIGHT-DARK MOVEMENTS): 37%
  EFF. % VS CONTROL (MOV. DARK % TOTAL MOV.): -1.1%
  LIGHT TIME TOTAL TIME: 33.9%
  LIGHT-DARK MOVEMENTS: 19.8
  MOV. DARK % TOTAL MOV.: 57%
  TOTAL MOVEMENTS: 499
mouse; 3.0 mg/kg IP
  EFF. % VS CONTROL (LIGHT TIME TOTAL TIME): 24%
  EFF. % VS CONTROL (LIGHT-DARK MOVEMENTS): 26%
  EFF. % VS CONTROL (MOV. DARK % TOTAL MOV.): -9%
  LIGHT TIME TOTAL TIME: 32.4%
  LIGHT-DARK MOVEMENTS: 18.2
  MOV. DARK % TOTAL MOV.: 60%
  TOTAL MOVEMENTS: 495
mouse
  anxiolytic activity, result in words: anxiolytic activity without sedative activity
  increase in the number of light-dark movements in comparison with the controls: 20-30%
Central CCK-B receptor
  times more active than the corresponding diastereoisomer at the carbon atom (**): about 5 times
Central CCK-B receptor; guinea-pig cortical membranes
  inhibition of the binding of [N-methyl-N-leucine]CCK-8, result in words: potent inhibitors
  IC50: 0.04 µM
CCK-A
  Ratio I/II (CCK-A IC50 / CCK-B IC50): 940
  IC50: 9.4 µM
